# Experiment: Population PK modeling and simulation of TD-6450 (NONMEM)
# Design: species or system human
# Text: Data were pooled from two healthy volunteer studies, one single ascending dose (SAD) and the other multiple ascending dose (MAD). Observed concentration data were transformed into their natural logarithms and evaluated using nonlinear mixed-effects modeling in NONMEM v7.4 (Icon Development Solution, Ellicott City, MD). Pirana v3.0, Perl-speaks-NONMEM (PsN) v4.8.1, and Xpose version 4.7.1, were used for automation, model evaluation, and diagnostics during the model building process.
# Different structural distribution models were evaluated (1-, 2-, and 3-compartment models) as well as different absorption models (first-order absorption and transit-compartment (n = 1–10) models). Relative bioavailability was fixed to unity for the population to evaluate inter-individual variability and the influence of covariates in the same parameter. […] Other biologically plausible covariate-parameter relationships (i.e. sex and age on all parameters, dose amount and duration of treatment on elimination clearance, absorption rate and relative bioavailability, concomitant food intake on absorption rate and relative bioavailability, and creatinine clearance on elimination clearance) were evaluated with a stepwise addition (p < 0.05) and elimination (p < 0.001) approach. All significant covariates in the forward step were evaluated with both linear and nonlinear functions, and the best-performing model was retained for the backward elimination step. Pharmacokinetic parameters were assumed to be log-normally distributed, and inter-individual variability (IIV) and inter-occasion variability (IOV) were implemented as exponential functions. Estimated IIV below 10% was removed in the final model, and IOV was estimated only on absorption parameters.
# Model fit was evaluated primarily by the objective function value (OFV; calculated by NONMEM as proportional to −2 × log-likelihood of the data). Model discrimination between two hierarchical models was determined by a likelihood ratio test, based on the Chi-square distribution of the OFV (i.e. p-value < 0.05 corresponding to ΔOFV > 3.84, at a 1 degree of freedom difference). Goodness-of-fit was used to evaluate the descriptive performances of developed models. Prediction- and variability-corrected visual predictive checks (pvcVPC, n = 2000 simulations) were used to assess the predictive performance of developed models.
# [1] = random effect, variance estimate
# [2] = residual error, variance estimate
# [3] = typical individual 80 kg, steady-state, high oral dose, fasting
smiles,measurement,setting,value
CNC(=O)N1C[C@@H](C)N(c2ccc(C(=O)Nc3ccc(-c4ccc(-c5c[nH]c([C@@H]6CCCN6C(=O)[C@@H](NC(=O)OC)C(C)C)n5)cc4)c(OC(F)(F)F)c3)cn2)C[C@@H]1C [TD-6450],decrease in relative bioavailability per 100 mg increase in dose,above 240 mg (240 to 500 mg),24.7%
same,"Dose on CL/F, population estimate (%RSE)",covariate relationship,1.35 (17.9)
same,"Dose on F, SIR median (95%CI)",covariate relationship,-0.241 (-0.207 to -0.284)
same,"Dose on F, population estimate (%RSE)",covariate relationship,-0.247 (7.92)
same,"Food on F, SIR median (95%CI)",covariate relationship,0.683 (0.475 to 0.885)
same,"Food on F, population estimate (%RSE)",covariate relationship,0.685 (15.0)
same,"Food on MTT, SIR median (95%CI)",covariate relationship,0.927 (0.696 to 1.19)
same,"Food on MTT, population estimate (%RSE)",covariate relationship,0.933 (10.3)
same,"Time dep. F, SIR median (95%CI)",covariate relationship,0.441 (0.355 to 0.569)
same,"Time dep. F, population estimate (%RSE)",covariate relationship,0.439 (12.5)
same,higher bioavailability when administered with food,food covariate,68.5%
same,longer absorption time when administered with food,food covariate,93.3%
same,"IIV CL/F, population estimate (%RSE)",[1],0.0148 (21.5)
same,"IIV F, SIR median (95%CI)",[1],0.151 (0.110 to 0.207)
same,"IIV F, population estimate (%RSE)",[1],0.150 (16.7)
same,"IIV MTT, SIR median (95%CI)",[1],0.0683 (0.0551 to 0.0830)
same,"IIV MTT, population estimate (%RSE)",[1],0.0683 (10.3)
same,"IIV Vc/F, SIR median (95%CI)",[1],0.0394 (0.0246 to 0.0514)
same,"IIV Vc/F, population estimate (%RSE)",[1],0.0391 (17.3)
same,"IIV Vp/F, SIR median (95%CI)",[1],0.0719 (0.0568 to 0.0919)
same,"IIV Vp/F, population estimate (%RSE)",[1],0.0713 (12.9)
same,"IOV F, SIR median (95%CI)",[1],0.0622 (0.0445 to 0.0794)
same,"IOV F, population estimate (%RSE)",[1],0.0631 (13.9)
same,"IOV MTT, SIR median (95%CI)",[1],0.0870 (0.0613 to 0.118)
same,"IOV MTT, population estimate (%RSE)",[1],0.0866 (17.1)
same,"RUV, SIR median (95%CI)",[2],0.0568 (0.0520 to 0.0624)
same,"RUV, population estimate (%RSE)",[2],0.242 (4.48)
same,"CL/F, SIR median (95%CI)",sampling importance resampling,12.1 (10.8 to 13.6) L/h
same,"MTT, SIR median (95%CI)",sampling importance resampling,2.30 (2.13 to 2.50) h
same,"Q/F, SIR median (95%CI)",sampling importance resampling,28.5 (22.5 to 35.5) L/h
same,"Vc/F, SIR median (95%CI)",sampling importance resampling,539 (464 to 626) L
same,"Vp/F, SIR median (95%CI)",sampling importance resampling,445 (384 to 513) L
same,"CL/F, population estimate (%RSE)",[3],12.1 (6.19) L/h
same,"MTT, population estimate (%RSE)",[3],2.30 (4.14) h
same,"Q/F, population estimate (%RSE)",[3],28.4 (11.4) L/h
same,"Vc/F, population estimate (%RSE)",[3],537 (7.89) L
same,"Vp/F, population estimate (%RSE)",[3],444 (7.36) L

# Reference: paper PMC10082216 (Nature Communications, 2023)
